{"source": "patent EP3325012B1", "about": "“CINEOLE-CONTAINING COMPOSITION FOR TREATING NOSE POLYPS” (Maria Clementine Martin Klosterfrau Vertriebsgesellschaft …, priority 2015, dated 2017)", "key": {"[1]": {"system": "Transkriptionsfaktors NF-kB", "assay": "NF-kB transcription factor activity in polyp material", "format": "cell-based, Mensch", "conditions": "in Polyposis nasi et sinuum; TNF-alpha as positive control", "description": "Da auch für Polyposis nasi et sinuum postuliert wird, dass Entzündungsparameter einen entscheidenden Einfluss auf die Progression dieser Erkrankung haben, untersuchte die Anmelderin den Einfluss von Cineol auf die Aktivität des Transkriptionsfaktors Nuclear Factor kappa B (NF-kB) und auf die Aktivität eines breiten Spektrums verschiedener Phosphokinasen, um so die molekularen Angriffspunkte von Cineol in verschiedenen Biosynthesewegen der Zelle hinsichtlich des Polyposis nasi et sinuum-\"Mikromilieus\" zu identifizieren.\nBei den Messergebnissen wurde TNF-alpha (tumor necrosis factor-alpha) als etablierter Stimulus der NF-kB Aktivität und somit als interne Positivkontrolle verwendet."}, "[2]": {"system": "proinflamatorischer Zytokine", "conditions": "inhalation; cited from earlier work"}, "[3]": {"system": "kultivierte Zellen aus der Nasenschleimhaut", "assay": "Proliferation of cultured nasal mucosa (epithelial) cells", "format": "cell-based, Mensch", "conditions": "treatment with 1,8-Cineol (Figur 2B)", "description": "Material und Methoden: Die Anmelderin hat Gewebeproben aus Nasenpolypen und unteren Nasenmuscheln von Patienten mit CRSwNP (chronischer Rhinosinusitis mit Nasenpolypen) und aus unteren Nasenmuscheln von Probanden ohne chronische Sinusitis (gesunde Schleimhaut) auf Basis von immunohistochemischen Methoden und Immunoblot-Verfahren untersucht. Die zelluläre Proliferation und Migration wurden unter Einsatz des xCELLigence Real Time Cell Analyzer untersucht.\nDie Zellproliferation wurde mittels eines quantitativen kolorimetrischen 3-(4,5-Dimethylthiazol 2-yl)-2,5-diphenyltetrazoliumbromid-basierten (MTT) Zelltests bestimmt. Dieser Test bestimmt die Anzahl an lebensfähigen Zellen auf Basis der mitochondrialen Umwandlung von MTT.\nDie Proliferation wurde mittels eines MTT-Tests von Sigma-Aldrich (\"In Vitro Toxicology Assay Kit\") entsprechend den Instruktionen des Herstellers ermittelt.\nIm Vergleich zur gesunden Nasenschleimhaut weisen Nasenpolypen eine andere Morphologie auf, was anhand von immunohistochemischen Färbungen mit Hämatoxylin-Eosin (HE) an gefrorenen Gewebeschnitten gezeigt werden konnte (Figur 1). Mit dieser Färbemethode werden basophile Strukturen mit Blau-Lila und eosinophile Strukturen mit hellem Pink angefärbt, wohingegen hydrophobe Strukturen, wie die Membranen des Golgi-Apparats, ungefärbt bzw. klar bleiben. […]"}, "Phosphokinasen": {"system": "Phosphokinasen", "assay": "Human Phospho-Kinase Antibody Array on nasal epithelial cells", "format": "cell-based, Mensch", "conditions": "100 µM, 24 Stunden; epithelial cells from nasal polyps compared with epithelial cells from inferior turbinates", "description": "Pflanzliche Medikationen könnten diese Nebenwirkungen reduzieren. In der Naturheilkunde werden ätherische Öle aufgrund ihrer sekretolytischen Eigenschaften zur Behandlung von Menschen eingesetzt, die klinische Verwendung wird jedoch aufgrund von Reizungen der Atemwege nach Inhalation bzw. Aufnahme eingeschränkt. Der Hauptbestandteil von Eukalyptusöl, nämlich 1,8-Cineol, wurde zur Behandlung von akuter und chronischer Bronchitis, Sinusitis und respiratorischen Infekten eingesetzt und allgemein gut vertragen. Bei dem Monoterpen 1,8-Cineol handelt es sich um ein Isoprenoid mit antiinflammatorischen Eigenschaften, welches menschlichen Isoprenoiden, wie Glucocorticoid, ähnelt. Unlängst wurden seitens der Anmelderin neue Eigenschaften des Mechanismus von 1,8-Cineol in Epithelzellen des Nasenpolypengewebes von Patienten mit chronischer Rhinosinusitis entdeckt. Im Rahmen dieser Studien hat die Anmelderin Epithelzellen aus Nasenpolypen und Gewebe der unteren Nasenmuscheln von zahlreichen Patienten isoliert und über einen Zeitraum von 24 Stunden in 100 µM 1,8-Cineol inkubiert. Die Proteine wurden isoliert und die Phosphokinasen mit Hilfe des \"Human Phospho-Kinase Antibody Array\" von R&D Systems ermittelt. […]"}}}
{"smiles": "CC12CCC(CC1)C(C)(C)O2", "note": "[1,8-Cineol, 1,3,3-Trimethyl-2-oxabicyclo[2.2.2]octan]", "values": [{"measurement": "Aktivität des Transkriptionsfaktors NF-kB", "setting": "[1]", "value": "keinen inhibierenden Einfluss hierauf hat, sondern vielmehr leicht aktivierend"}, {"measurement": "proinflamatorische Zytokine", "setting": "[2]", "value": "deutlichen Reduktion"}, {"measurement": "Proliferation kultivierter Zellen aus der Nasenschleimhaut", "setting": "[3]", "value": "nicht beeinflusst"}, {"measurement": "Expression von Phosphokinasen", "setting": "Phosphokinasen", "value": "veränderte Expression"}]}
